Legend:
[1] = target: human Famesoid X receptor ligand-binding domain/Gal4 DNA binding domain chimera (Homo sapiens (Human), UniProt Q96RI1); assay: Cellular FXR beta-lactamase reporter assay (FXR-UAS-bla HEK 293T); assay type: cell-based; conditions: for Emax: HEK-293T, read-out: % Efficacy; for EC50: read-out: FXR pEC50 (converted); for % Efficacy: extent of activation relative to GW4064
Procedure: FXR activation was measured using a cell line and procedure obtained from Life Technologies (Cat #K1691). FXR-UAS-&/a HEK 293T cells contain a human Famesoid X receptor ligand-binding domain/Gal4 DNA binding domain chimera stably integrated into the CellSensor® UAS-bla HEK293T cell line. The CellSensor® UAS-bla HEK293T contains a beta-lactamase reporter gene under control of a UAS response element stably integrated into HEK 293T cells. Activation of FXR by bound ligands results in transcriptional activation of the beta-lactamase reporter gene, which is detected via assay of beta-lactamase activity.
Cells are harvested and diluted into assay medium containing phenol red-free DMEM supplemented with 2% Charcoal-stripped FBS, pyruvate, non-essential amino acids. Cells are then transferred to a 384 well assay plate. Test compounds are dissolved in DMSO and a 3-fold serial dilution series is generated, then further diluted into assay medium. Compounds in assay medium are added to cells in the 384 well plate and allowed to incubate 16 h at 37 C in the presence of 5% CO2.
A FRET-based […] (CCF4) is loaded into cells as its acetomethoxy ester. Intracellular esterases liberate free CCF4, a cephalosporin core linking 7-hydroxycoumarin to fluorescein. In the presence of beta-lactamase activity produced in the presence of FXR agonists, cleavage of CCF4 spatially separates the two dyes and disrupts FRET, so that exciting the coumarin at 409 nm now produces a blue fluorescence signal at 447 nm. The change in FRET signal is plotted against the test compound concentration and fit to a 3-parameter logistical equation.

[2] = target: ligand binding domain of human FXR (Homo sapiens (Human), UniProt Q96RI1); assay: FXR ligand binding assay (LanthaScreen FRET); conditions: for % Efficacy: extent of activation relative to GW4064; for Emax: read-out: % Efficacy
Procedure: The affinity of FXR ligands for the ligand binding domain of FXR was determined using a commercially available human FXR ligand binding assay (LanthaScreen, Thermofisher Cat #PV4833). […] Binding of FXR ligands to the FXR ligand binding domain promotes binding of the fluorescein-labelled SRC2-2 peptide. This causes a FRET signal between the terbium-labelled anti-GST antibody and the fluorescein-labelled SRC peptide which are both bound to the FXR ligand binding domain.
Test compounds are dissolved in DMSO and a 3-fold serial dilution series is generated, then further diluted into assay buffer. The compounds are mixed with 5 nM GST-tagged FXR ligand binding domain, 5 nM Tb-labelled anti-GST antibody and 500 nM fluorescein-labelled SRC2-2 peptide in a pH 7.4 buffer. The reaction is incubated at room temperature for 1 hour, then the FRET signal is measured as the ratio of the 520 nm/495 nm emission following excitation at 340 nm. The change in FRET signal is plotted against the test article concentration and fit to a 3-parameter logistical equation.

[3] = system: fibroblast growth factor 19 (FGF19) secretion in human ileum; assay: Human Ileum APECCS (FGF19); assay type: cell-based; conditions: relative to GW4064
[4] = system: C57BL/6 male mice fed a Western diet; assay: Western diet study; assay type: in vivo, C57BL/6 mice
Procedure: Six-week-old C57BL/6 male mice were fed a Western diet (WD) (62% fat/0.2% cholesterol). […] An additional control group (lean) was fed a standard rodent chow throughout the study. Body weight measurements and serum samples (tail bleed) were taken weekly. After 6 weeks of treatment, all animals were sacrificed and hepatosteatosis-related endpoints and other liver markers were measured.
Total RNA from mouse tissues was isolated and used for library preparation. Library samples were multiplexed ahead of mRNA sequencing.

human Famesoid X receptor ligand-binding domain/Gal4 DNA binding domain chimera, sequence (Q96RI1 262-486, stated change not applied): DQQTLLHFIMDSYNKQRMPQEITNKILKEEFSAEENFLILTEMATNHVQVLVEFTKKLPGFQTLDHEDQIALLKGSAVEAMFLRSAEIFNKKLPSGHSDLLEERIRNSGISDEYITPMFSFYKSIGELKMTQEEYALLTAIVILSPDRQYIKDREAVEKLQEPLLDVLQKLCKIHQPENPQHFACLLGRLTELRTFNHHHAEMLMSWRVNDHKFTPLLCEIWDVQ
ligand binding domain of human FXR, sequence (Q96RI1 262-486): as the sequence (Q96RI1 262-486, stated change not applied) above

Row | Compound | Emax [1] [%] | EC50 [1] [µM] | Emax [2] [%] | other results
1 | 2-[(1R,3S,5S)-3-(5-cyclopropyl-3-{4-methoxybicyclo[2.2.2]octan-1-yl}-1,2-oxazole-4-carbonyloxy)-8-azabicyclo[3.2.1]octan-8-yl]-4-(trifluoromethoxy)-1,3-benzothiazole-6-carboxylic acid [Compound I-58] | – | – | – | FXR pEC50 ([1]; pEC50 = −log EC50, 16 h incubation): >4.5; % Efficacy [2]: 22%; FXR pEC50 ([2]; pEC50 = −log EC50, FRET signal, SRC2-2 peptide): >4.4
2 | CC(C)(C)c1onc(-c2c(Cl)cccc2Cl)c1C(=O)OC1C[C@H]2CC[C@@H](C1)N2c1nc2c(F)cc(C(=O)O)cc2s1 (single isomer, unassigned) [Compound I-25] | 100 | 0.0251 | 56 | –
3 | CC1(c2onc(-c3c(Cl)cccc3Cl)c2C(=O)OC2C[C@H]3CC[C@@H](C2)N3c2nc3c(F)cc(C(=O)O)cc3s2)CC1 (single isomer, unassigned) [Compound I-26] | 106 | 0.0316 | 75 | –
4 | O=C(O)c1cc(F)c2nc(N3[C@@H]4CC[C@H]3C[C@@H](OC(=O)c3c(-c5ccccc5)noc3C3CC3)C4)sc2c1 [Compound I-13, 2-[(1R,3R,5S)-3-(5-Cyclopropyl-3-phenyl-1,2-oxazole-4-carbonyloxy)-8-azabicyclo[3.2.1]octan-8-yl]-4-fluoro-1,3-benzothiazole-6-carboxylic acid] | 93 | 1 | 40 | –
5 | O=C(O)c1cc(F)c2nc(N3[C@@H]4CC[C@H]3C[C@@H](OC(=O)c3c(-c5ccccc5OC(F)(F)F)noc3C3CC3)C4)sc2c1 [Compound I-14, 2-[(1R,3R,5S)-3-{5-cyclopropyl-3-[2-(trifluoromethoxy)phenyl]-1,2-oxazole-4-carbonyloxy}-8-azabicyclo[3.2.1]octan-8-yl]-4-fluoro-1,3-benzothiazole-6-carboxylic acid] | 116 | 0.00794 | 147 | –
6 | O=C(O)c1cc(F)c2nc(N3[C@@H]4CC[C@H]3C[C@@H](OC(=O)c3c(-c5c(Cl)cccc5OC(F)F)noc3C3CC3)C4)sc2c1 [Compound I-15, 2-[(1R,3R,5S)-3-{3-[2-chloro-6-(difluoromethoxy)phenyl]-5-cyclopropyl-1,2-oxazole-4-carbonyloxy}-8-azabicyclo[3.2.1]octan-8-yl]-4-fluoro-1,3-benzothiazole-6-carboxylic acid] | 108 | 0.0398 | 71 | –
7 | O=C(O)c1cc(F)c2nc(N3[C@@H]4CC[C@H]3C[C@@H](OC(=O)c3c(-c5c(F)cccc5F)noc3C3CC3)C4)sc2c1 [Compound I-16, 2-[(1R,3R,5S)-3-[5-cyclopropyl-3-(2,6-difluorophenyl)-1,2-oxazole-4-carbonyloxy]-8-azabicyclo[3.2.1]octan-8-yl]-4-fluoro-1,3-benzothiazole-6-carboxylic acid] | 110 | 0.2 | 47 | –
8 | O=C(O)c1cc(F)c2nc(N3[C@@H]4CC[C@H]3C[C@@H](OC(=O)c3c(C5CCC6(CC5)CC6)noc3C3CC3)C4)sc2c1 [Compound I-19, 2-[(1R,3R,5S)-3-(5-cyclopropyl-3-{spiro[2.5]octan-6-yl}-1,2-oxazole-4-carbonyloxy)-8-azabicyclo[3.2.1]octan-8-yl]-4-fluoro-1,3-benzothiazole-6-carboxylic acid] | 79 | 0.158 | 55 | –
9 | O=C(O)c1cc(F)c2nc(N3[C@@H]4CC[C@H]3C[C@@H](OC(=O)c3c(C56CCC(CC5)CC6)noc3C3CC3)C4)sc2c1 [Compound I-20, 2-[(1R,3R,5S)-3-(3-{Bicyclo[2.2.2]octan-1-yl}-5-cyclopropyl-1,2-oxazole-4-carbonyloxy)-8-azabicyclo[3.2.1]octan-8-yl]-4-fluoro-1,3-benzothiazole-6-carboxylic acid] | – | – | – | % Efficacy [1]: 22%
10 | Cc1onc(-c2c(Cl)cccc2Cl)c1C(=O)O[C@H]1C[C@H]2CC[C@@H](C1)N2c1nc2c(F)cc(C(=O)O)cc2s1 [Compound I-23, 2-[(1R,3S,5S)-3-[3-(2,6-dichlorophenyl)-5-methyl-1,2-oxazole-4-carbonyloxy]-8-azabicyclo[3.2.1]octan-8-yl]-4-fluoro-1,3-benzothiazole-6-carboxylic acid] | 100 | 0.158 | 37 | –
11 | O=C(O)c1cc(F)c2nc(N3[C@@H]4CC[C@H]3C[C@@H](OC(=O)c3c(-c5c(Cl)cccc5Cl)noc3C3CCC3)C4)sc2c1 [Compound I-24, 2-[(1R,3R,5S)-3-[5-cyclobutyl-3-(2,6-dichlorophenyl)-1,2-oxazole-4-carbonyloxy]-8-azabicyclo[3.2.1]octan-8-yl]-4-fluoro-1,3-benzothiazole-6-carboxylic acid] | 98 | 0.0316 | 64 | –
12 | O=C(O)c1cc(F)c2nc(N3[C@@H]4CC[C@H]3C[C@@H](OC(=O)c3c(-c5c(Cl)cccc5Cl)noc3C3(F)CC3)C4)sc2c1 [Compound I-27, 2-[(1R,3R,5S)-3-[3-(2,6-dichlorophenyl)-5-(1-fluorocyclopropyl)-1,2-oxazole-4-carbonyloxy]-8-azabicyclo[3.2.1]octan-8-yl]-4-fluoro-1,3-benzothiazole-6-carboxylic acid] | 108 | 0.00398 | 107 | –
13 | Cn1c(N2[C@@H]3CC[C@H]2C[C@@H](OC(=O)c2c(-c4c(Cl)cccc4Cl)noc2C2CC2)C3)nc2c(F)cc(C(=O)O)cc21 [Compound I-31, 2-[(1R,3R,5S)-3-[5-cyclopropyl-3-(2,6-dichlorophenyl)-1,2-oxazole-4-carbonyloxy]-8-azabicyclo[3.2.1]octan-8-yl]-4-fluoro-1-methyl-1H-1,3-benzodiazole-6-carboxylic acid] | 100 | 0.398 | – | –
14 | O=C(Cc1c(-c2c(Cl)cccc2Cl)noc1C1CC1)O[C@H]1C[C@H]2CC[C@@H](C1)N2c1nc2c(F)cc(C(=O)O)cc2s1 [Compound I-32, 2-[(1R,3R,5S)-3-({2-[5-cyclopropyl-3-(2,6-dichlorophenyl)-1,2-oxazol-4-yl]acetyl}oxy)-8-azabicyclo[3.2.1]octan-8-yl]-4-fluoro-1,3-benzothiazole-6-carboxylic acid] | 86 | 0.398 | 34 | –
15 | CCCS(=O)(=O)NC(=O)c1ccc(N2[C@@H]3CC[C@H]2C[C@@H](OC(=O)c2c(-c4c(Cl)cccc4Cl)noc2C2CC2)C3)cc1 [Compound I-45, (1R,3R,5S)-8-{4-[(propane-1-sulfonyl)carbamoyl]phenyl}-8-azabicyclo[3.2.1]octan-3-yl 5-cyclopropyl-3-(2,6-dichlorophenyl)-1,2-oxazole-4-carboxylate] | – | – | – | % Efficacy [1]: 128%; % Efficacy [2]: 130%
16 | CCCCCS(=O)(=O)NC(=O)c1ccc(N2[C@@H]3CC[C@H]2C[C@@H](OC(=O)c2c(-c4c(Cl)cccc4Cl)noc2C2CC2)C3)cc1 [Compound I-46, (1R,3R,5S)-8-{4-[(pentane-1-sulfonyl)carbamoyl]phenyl}-8-azabicyclo[3.2.1]octan-3-yl 5-cyclopropyl-3-(2,6-dichlorophenyl)-1,2-oxazole-4-carboxylate] | – | – | – | % Efficacy [1]: 110%; % Efficacy [2]: 146%
17 | O=C(NS(=O)(=O)C1CC1)c1ccc(N2[C@@H]3CC[C@H]2C[C@H](OC(=O)c2c(-c4c(Cl)cccc4Cl)noc2C2CC2)C3)cc1 [Compound I-48, (1R,3S,5S)-8-{4-[(cyclopropanesulfonyl)carbamoyl]phenyl}-8-azabicyclo[3.2.1]octan-3-yl 5-cyclopropyl-3-(2,6-dichlorophenyl)-1,2-oxazole-4-carboxylate] | – | – | – | % Efficacy [1]: 130%
18 | CC(C)c1onc(-c2c(Cl)cccc2Cl)c1COc1ccc(/C=C/c2cccc(C(=O)O)c2)c(Cl)c1 [GW4064] | – | – | – | Activity, % (n) [3]: 100 ± 0 (154) %
19 | O=C(O)c1ccc([C@H]2C[C@@H]2c2ccc(OCc3c(-c4c(Cl)cccc4Cl)noc3C3CC3)cc2Cl)cc1 [Px-102] | – | – | – | Activity, % (n) ([2]; Human FXR Binding (FRET), relative to GW4064): 90 ± 15 (3) %; liver Cyp7a1 gene expression [4]: downregulated; hepatosteatosis related endpoints (including liver triglycerides and liver cholesterol) ([4]; 6 weeks of treatment): normalized; macrovesicular steatosis (score) ([4]; 6 weeks of treatment): reduced; serum FGF15 concentration ([4]; 6 weeks of treatment): further increased; serum cholesterol ([4]; 6 weeks of treatment): reduced
